This note sets out measurements from US9072741B2, “Methods of treating liver fibrosis and pre-cirrhosis with epidermal growth factor receptor inhibitors” (The General Hospital Corporation, priority 2009, dated 2015).

Molecules are shown by their SMILES.

Assay [1] concerns DEN-induced cirrhosis and HCC. Kind of assay: DEN-induced rat model of cirrhosis and HCC: tumor formation (tumor nodules) and gross liver appearance. The format is in vivo, male Wistar rats. Conditions: for decrease of tumor formation: vs vehicle. The procedure: FIG. 1A is a bar graph depicting the number of tumor nodules in male Wistar rats receiving weekly intraperitoneal injections of 50 mg/kg diethylnitrosamine (DEN) for 18 weeks and vehicle only (n=16), 0.5 mg/kg erlotinib (Erl 0.5; n=8), or 2 mg/kg erlotinib (Erl 2; n=8) during weeks 12-18.
FIG. 5A is a bar graph depicting the number of tumor nodules in male Wistar rats receiving weekly intraperitoneal injections of 50 mg/kg DEN for 18 weeks and vehicle only (n=8) or 18 mg/kg lapatinib (n=8) during weeks 12-18. *, significant.
Given the lack of successful treatment options for HCC, chemoprevention in high-risk patients has been proposed as an alternative strategy (Llovet et al., Lancet 362:1907-17, 2003). Even though EGFR inhibition is not effective for chemotherapy, the data presented herein indicate that it is likely to be a good chemoprevention strategy. The diethylnitrosamine (DEN)-induced rat model of sequential cirrhosis and HCC has emerged as a promising tool for not only studying the course of chronic liver disease but also for testing putative chemopreventive agents as it better resembles disease progression in humans (Lee et al., Korean J Hepatol 13:70-80, 2007; Schiffer et al., Hepatology 41:307-14, 2005). In this model, DEN induces liver cirrhosis after 12 weeks and HCC at approximately 18 weeks allowing ample opportunity for preventative intervention.
Erlotinib is a drug used to treat non-small cell lung cancer and pancreatic cancer. Erlotinib specifically targets the EGFR, which is highly expressed and occasionally mutated in various forms of cancer, by binding to the adenosine triphosphate (ATP) binding site of the receptor (Raymond et al., Drugs 60 Suppl 1:15-23, 2000). To investigate erlotinib as a chemoprevention strategy for liver fibrogenesis, male Wistar rats were given a weekly intraperitoneal injection of 50 mg/kg DEN to induce cirrhosis and HCC (Lee et al., Korean J Hepatol 13:70-80, 2007). Erlotinib was administered by intraperitoneal injection daily (5× a week) during weeks 12-18 at a dose of 2 mg/kg, which is equivalent to chemotherapeutic dosing regimens in humans. […] In a separate study, the dose of erlotinib was lowered to 0.5 mg/kg.
Repeated injury to the liver causes damage to hepatocytes and activates resident macrophages called Kupffer cells. Damaged hepatocytes and activated Kupffer cells secrete cytokines and growth factors into the liver milieu, which activate hepatic stellate cells (Friedman, Gastroenterology 134:1655-69, 2008). Normally, hepatic stellate cells are quiescent and store vitamin A and fat. Upon activation, they differentiate into a myofibroblast-phenotype and express α-smooth muscle actin (α-SMA) (Friedman, Gastroenterology 134:1655-69, 2008). Activated hepatic stellate cells deposit fibrous collagen into the space of Disse acutely causing fibrosis and chronically causing cirrhosis. The degree of liver disease (fibrosis versus cirrhosis) is pathologically assessed through trichrome staining of collagen by the method of Ishak (Mod Pathol 7:690-713, 1994).
To investigate lapatinib as a chemoprevention strategy for liver fibrogenesis, male Wistar rats were given a weekly intraperitoneal injection of 50 mg/kg DEN to induce cirrhosis and HCC (Lee et al., Korean J Hepatol 13:70-80, 2007). Lapatinib was administered by intraperitoneal injection daily (5× a week) during weeks 12-18 at a dose of 18 mg/kg.

In assay [2] the test system is DEN-induced hepatotoxicity and liver failure. As to the kind of experiment: Liver function tests on serum (AST, TBIL, Glu) of DEN-treated rats. In kind it is in vivo, male Wistar rats. The settings on record: n=4. The procedure:
FIGS. 4A, 4B, and 4C are a series of three bar graphs showing the levels of (A) aspartate transaminase (AST), (B) total bilirubin (TBIL), and (C) total glucose (Glu) in serum from rats treated with PBS for 18 weeks or DEN (50 mg/kg) for 18 weeks plus either vehicle, 0.5 mg/kg erlotinib (Erl 0.5), or 2 mg/kg erlotinib (Erl 2) during weeks 12-18. *, significant.
FIGS. 7A, 7B, and 7C are a series of three bar graphs showing levels of (A) aspartate transaminase (AST), (B) total bilirubin (TBIL), and (C) total glucose (Glu) in serum from rats treated with DEN (50 mg/kg) for 18 weeks plus either vehicle or 18 mg/kg lapatinib during weeks 12-18. *, significant.
During fibrosis, hepatic stellate cells are activated and deposit fibrous collagen into the space of Disse, the area between the hepatocytes and the sinusoid containing blood plasma. The deposition of collagen inhibits the normal exchange of nutrients and wastes between the hepatocytes and plasma resulting in hepatotoxicity and liver failure. The degree of liver toxicity and failure can be assessed by measuring several proteins or a carbohydrate present in the serum. For example, aspartate aminotransferase (AST) is an enzyme present in hepatocytes that is released into the serum when hepatocytes die. Bilirubin (TBIL) is the breakdown product of heme and its levels become elevated in the serum if hepatocytes cannot properly metabolize it. Finally, liver failure will result in lower levels of glucose (Glu) production causing serum Glu levels to drop.
The levels of AST, TBIL, and Glu were assayed in serum from rats treated with erlotinib. Male Wistar rats (n=4) were treated with PBS for 18 weeks or a weekly intraperitoneal injection of 50 mg/kg DEN for 18 weeks plus either vehicle, 0.5 mg/kg erlotinib (Erl 0.5), or 2 mg/kg erlotinib (Erl 2) between weeks 12 and 18. Whole blood was isolated from the rats and allowed to clot for 2 hours at room temperature. The blood was then spun at 2,000 rpm for 10 minutes and serum (top layer) was isolated. Liver function tests were performed on serum from the rats. In the current model, intraperitoneal administration of DEN causes both hepatotoxicity and liver failure to increase over time as assessed by these three markers. However, compared to vehicle controls, erlotinib reduced the degree of hepatotoxicity and liver failure in a dose-dependent fashion. Specifically, erlotinib decreased serum levels of AST and TBIL and increased serum levels of Glu (FIGS. 4A-C).
Levels of AST, TBIL, and Glu were assayed in serum from rats treated with lapatinib. Male Wistar rats (n=4) were treated with PBS for 18 weeks or a weekly intraperitoneal injection of 50 mg/kg DEN for 18 weeks plus either vehicle or 18 mg/kg lapatinib between weeks 12 and 18. Whole blood was isolated from the rats and allowed to clot for 2 hours at room temperature. The blood was then spun at 2,000 rpm for 10 minutes and serum (top layer) was isolated. Liver function tests were performed on serum from the rats. In the current model, intraperitoneal administration of DEN causes both hepatotoxicity and liver failure to increase over time as assessed by these three markers. However, compared to vehicle controls, lapatinib reduced the degree of hepatotoxicity and liver failure. Specifically, lapatinib decreased serum levels of AST and TBIL and increased serum levels of Glu (FIGS. 7A-C).

Setting [3] is: 0.5 and 2 mg/kg weeks 12-18 vs vehicle, dose-dependent.
The mark [4] stands for this setting: 18 mg/kg weeks 12-18 vs vehicle.

With `C#Cc1cccc(Nc2ncnc3cc(OCCOC)c(OCCOC)cc23)c1` [erlotinib, 4-Quinazolinamine, N-(3-ethynylphenyl)-6,7-bis(2-methoxyethoxy)], the “inhibition of tumor formation” value in assay [1] (0.5 mg/kg i.p. daily weeks 12-18, DEN 50 mg/kg weekly for 18 weeks, separate study) came to 49%. The “decrease of tumor formation” value in assay [1] (2 mg/kg i.p. daily (5x a week) weeks 12-18, DEN 50 mg/kg weekly for 18 weeks) worked out at 75%. For the same molecule, the “gross appearance of livers” value in assay [1] (0.5 and 2 mg/kg weeks 12-18 (FIGS. 1C, 1D) vs vehicle) is listed as “not only exhibited less tumors, but also appeared less cirrhotic”. For the same molecule, in assay [2] (setting [3]), the “serum level of AST” value is listed as “decreased”, the “serum level of Glu” value is reported as “increased” and the “serum level of TBIL” value is reported as “decreased”.
Consider `CS(=O)(=O)CCNCc1ccc(-c2ccc3ncnc(Nc4ccc(OCc5cccc(F)c5)c(Cl)c4)c3c2)o1` [lapatinib, 4-Quinazolinamine, N-(3-chloro-4-((3-fluorophenyl)methoxy)phenyl)-6-(5-(((2-(methylsulfonyl)ethyl)amino)methyl)-2-furanyl)], for which the “decrease of tumor formation” value in assay [1] (18 mg/kg i.p. daily (5x a week) weeks 12-18, DEN 50 mg/kg weekly for 18 weeks) was “greater than 50%”. In addition, the “gross appearance of livers” value in assay [1] (18 mg/kg weeks 12-18 (FIG. 5C) vs vehicle) was “not only exhibited less tumors, but also appeared less cirrhotic”. In assay [2] (setting [4]), the “serum level of AST” value is “decreased”, the “serum level of Glu” value was “increased” and the “serum level of TBIL” value was “decreased”.
